According to PubChem BioAssay AID1159564 (GlaxoSmithKline (GSK), 2015):
Active and inactive are the calls of the source. How the calls were made is not given here.

Test system: L. donovani-infected THP-1 macrophages, intracellular amastigote imaging
Test: antileishmanial activity in infected THP-1 macrophages – imaging, THP-1 host macrophages, host toxicity (AID 1159564)
[1] = measured here: THP-1 host cell toxicity
[2] = measured here: amastigotes per macrophage

CC(c1ccccn1)N(C)Cc1nc2ccccc2n1C(C)C (centres undefined)
IC50: 3.2 µM
IC50 [1]: 16 µM
IC50 [2]: 2 µM

COc1ccc(-c2csc(NC(=O)c3ccc([N+](=O)[O-])s3)n2)cc1OC
IC50: 1.3 µM
IC50 [1]: 32 µM
IC50 [2]: 1.3 µM

Cc1ccc(NC(=O)c2ccnc(N3CCCC3)c2)cc1-c1ccsc1C(N)=O
IC50: > 50 µM (inactive)
IC50 [1]: > 50 µM
IC50 [2]: > 50 µM

COc1ccc2ncc(F)c(CCN3CC[C@@H](NC(=O)c4cc5c(s4)CCC5)[C@@H](O)C3)c2n1
IC50: 6.3 µM
IC50 [1]: 25 µM
IC50 [2]: 1.3 µM

CC(C)Nc1nccc(-c2c(-c3ccc(F)cc3)ncn2C2CCOCC2)n1
IC50: 25 µM
IC50 [1]: > 50 µM
IC50 [2]: 16 µM

CCN(CC)S(=O)(=O)c1ccc(C(=O)Nc2cc(C)nn2-c2nc(C)c(C)c(=O)[nH]2)cc1
IC50: > 50 µM (inactive)
IC50 [1]: 3.2 µM
IC50 [2]: > 50 µM

Cc1cccc(NS(=O)(=O)c2cnc3sc(C)cn3c2=O)c1
IC50: > 50 µM (inactive)
IC50 [1]: > 50 µM
IC50 [2]: 5 µM

O=c1ccn(-c2ccc([N+](=O)[O-])cc2Cl)c2ccc(F)cc12
IC50: > 50 µM (inactive)
IC50 [1]: > 50 µM
IC50 [2]: > 50 µM

O=C(Cc1ccccc1)Nc1ccccc1C(=O)Nc1nccs1
IC50: > 50 µM (inactive)
IC50 [1]: > 50 µM
IC50 [2]: > 50 µM

O=C(Nc1cccc(Cl)c1)N1CCCCC1c1cccnc1 (centres undefined)
IC50: > 50 µM (inactive)
IC50 [1]: > 50 µM
IC50 [2]: > 50 µM

O=C(NCc1ccncc1)c1ccccc1N1CCCN(C(=O)Cc2ccc(F)c(F)c2)CC1
IC50: > 50 µM (inactive)
IC50 [1]: > 50 µM
IC50 [2]: > 50 µM

O=C(COc1ncnc2cc([N+](=O)[O-])ccc12)NC(=O)NC1CCCCC1
IC50: > 50 µM (inactive)
IC50 [1]: > 50 µM
IC50 [2]: > 50 µM

COc1ccc(C2C3CCCCC3(O)CCN2CC(=O)Nc2ccc(Cl)cc2Cl)cc1 (centres undefined)
IC50: 2.5 µM
IC50 [1]: > 50 µM
IC50 [2]: 0.79 µM

CCC(c1ccc(F)cc1)n1cncc1-c1cnn(C)c1 (centres undefined)
IC50: > 50 µM (inactive)
IC50 [1]: > 50 µM
IC50 [2]: > 50 µM

O=C1CSC(c2cccnc2)N1c1ccc(Cl)cc1Cl (centres undefined)
IC50: > 50 µM (inactive)
IC50 [1]: > 50 µM
IC50 [2]: > 50 µM

COc1cccc(CCNC(=O)C(c2cn[nH]c2)N2CCN(c3ccc(Cl)cc3)CC2)c1 (centres undefined)
IC50: 20 µM
IC50 [1]: 25 µM
IC50 [2]: 10 µM

O=C(NCc1nnc2n1CCCCC2)c1csc(-c2ccccc2)n1
IC50: > 50 µM (inactive)
IC50 [1]: > 50 µM
IC50 [2]: > 50 µM

Cc1cc2nc(CN(C)Cc3ncccc3C)[nH]c2cc1C
IC50: 0.63 µM
IC50 [1]: 7.9 µM
IC50 [2]: 0.5 µM

COc1ccccc1-c1c(C)[nH]c2nc(N)nc(C)c12
IC50: 25 µM
IC50 [1]: > 50 µM
IC50 [2]: 16 µM

COc1ccc(OC)c(S(=O)(=O)N(Cc2c(F)cccc2F)[C@@H]2CCN(C#N)C2)c1
IC50: 25 µM
IC50 [1]: 20 µM
IC50 [2]: 20 µM

CN(Cc1ccccc1)Cc1nnnn1C1CCN(Cc2ccc(-n3ccnc3)cc2)CC1
IC50: > 50 µM (inactive)
IC50 [1]: 32 µM
IC50 [2]: > 50 µM

Cc1[nH]nc(C(F)(F)F)c1NC(=O)CCn1cc(Cl)c([N+](=O)[O-])n1
IC50: > 50 µM (inactive)
IC50 [1]: 16 µM
IC50 [2]: > 50 µM

COc1ccc(C(=O)Nc2cc(C(F)(F)F)ccc2N2CCOCC2)c(OC)c1
IC50: 10 µM
IC50 [1]: 13 µM
IC50 [2]: 7.9 µM

CCNc1cc(-c2ccccn2)nc(Nc2ccc(OC)cc2)n1
IC50: 0.5 µM
IC50 [1]: 25 µM
IC50 [2]: 0.4 µM

NC(=O)c1cc(NC(=O)c2ccccc2COc2ccccc2)ccc1Cl
IC50: 3.2 µM
IC50 [1]: 16 µM
IC50 [2]: 1.6 µM

COc1ncc(-c2ccc3ncnc(N4CCOCC4)c3c2)cc1NS(C)(=O)=O
IC50: 5 µM
IC50 [1]: 1 µM
IC50 [2]: 0.63 µM

COc1ccc2ncc(F)c(NC(=O)C3(O)CCC(NCc4ccc5c(c4)OCCO5)CC3)c2n1 (centres undefined)
IC50: 32 µM
IC50 [1]: 20 µM
IC50 [2]: 16 µM

COc1ccc(OC)c2c(=O)c(Cc3ccccc3)c(C)[nH]c12
IC50: 4 µM
IC50 [1]: > 50 µM
IC50 [2]: 2.5 µM

O=C(CN1CCN(c2ccccn2)CC1)Nc1cc(S(=O)(=O)N2CCCCCC2)ccc1Cl
IC50: 6.3 µM
IC50 [1]: 50 µM
IC50 [2]: 1.3 µM

COc1ccc(CN2CCCCC2c2nc(-c3cccnc3)no2)cc1 (centres undefined)
IC50: > 50 µM (inactive)
IC50 [1]: > 50 µM
IC50 [2]: > 50 µM

Cc1sc(C)c(C(F)(F)F)c1CNCCCNc1cc(=O)c2ccccc2[nH]1
IC50: 50 µM
IC50 [1]: 32 µM
IC50 [2]: 25 µM

CN(C)c1ccc(-c2cc3nccnc3c(OC[C@H]3CCCNC3)n2)cn1
IC50: 20 µM
IC50 [1]: 20 µM
IC50 [2]: 25 µM

CCC1Oc2cc(S(=O)(=O)N(C)CC(=O)N3CCc4ccccc4C3)c(C)cc2NC1=O (centres undefined)
IC50: > 50 µM (inactive)
IC50 [1]: > 50 µM
IC50 [2]: 32 µM

Clc1ccc(C(CC2CCCCO2)Cn2cncn2)c(Cl)c1 (centres undefined)
IC50: > 50 µM (inactive)
IC50 [1]: > 50 µM
IC50 [2]: > 50 µM

Cc1[nH]nc2c1C(c1ccc(OCc3ccccc3F)cc1)SCC(=O)N2 (centres undefined)
IC50: > 50 µM (inactive)
IC50 [1]: > 50 µM
IC50 [2]: > 50 µM

CC(C)(C)C(Cn1ccnc1)NC(=O)c1ccc2nc(C3CC3)oc2c1 (centres undefined)
IC50: > 50 µM (inactive)
IC50 [1]: 16 µM
IC50 [2]: > 50 µM

O=C(NC(c1ccc(Cl)cc1)c1cnccn1)C1CCN(C(=O)Nc2cccc(C(F)(F)F)c2)CC1 (centres undefined)
IC50: > 50 µM (inactive)
IC50 [1]: 40 µM
IC50 [2]: > 50 µM

Cc1[nH]c2ccccc2c(=O)c1Cc1c(C)[nH]c2ccccc2c1=O
IC50: > 50 µM (inactive)
IC50 [1]: > 50 µM
IC50 [2]: > 50 µM

O=C(CSc1ccc(-c2ccccn2)nn1)Nc1ccc(Cl)cc1
IC50: > 50 µM (inactive)
IC50 [1]: > 50 µM
IC50 [2]: > 50 µM

Cc1ccc(S(C)(=O)=O)cc1Nc1nccc(-c2sc(N)nc2-c2ccccc2)n1
IC50: 5 µM
IC50 [1]: 20 µM
IC50 [2]: 2.5 µM

CN(Cc1ccc(F)cc1)c1ccc(OCC(=O)N2CCCCC2c2cccnc2)nn1 (centres undefined)
IC50: > 50 µM (inactive)
IC50 [1]: 32 µM
IC50 [2]: > 50 µM

Cc1cc(C)c(C#N)c(SCC(=O)c2ccc3c(c2)OCO3)n1
IC50: > 50 µM (inactive)
IC50 [1]: > 50 µM
IC50 [2]: > 50 µM

NCc1csc(Nc2cc(Oc3ccccc3)ncn2)n1
IC50: 25 µM
IC50 [1]: > 50 µM
IC50 [2]: 25 µM

CCCCc1cc(Nc2cc(C3CCC3)[nH]n2)nc(N2CCC2C(N)=O)n1 (centres undefined)
IC50: 2 µM
IC50 [1]: 1 µM
IC50 [2]: 0.63 µM

CCCC(=O)N(Cc1ccccn1)c1nc2ccccc2s1
IC50: > 50 µM (inactive)
IC50 [1]: > 50 µM
IC50 [2]: 10 µM

CCCn1c(NC(=O)CCn2cc(Br)cn2)nc2ccccc21
IC50: 10 µM
IC50 [1]: > 50 µM
IC50 [2]: 5 µM

O=C1NCCn2ccc(Nc3nc(NC4CCC(O)CC4)ncc3Cl)c21 (centres undefined)
IC50: 1 µM
IC50 [1]: 0.4 µM
IC50 [2]: 0.63 µM

CCOc1ccc(N(C)S(=O)(=O)c2ccc3[nH]cc(C(=O)NC4CCCC4)c(=O)c3c2)cc1
IC50: 32 µM
IC50 [1]: 25 µM
IC50 [2]: 32 µM

Cc1cc(N(C)C)nc(Nc2ccccc2C)n1
IC50: 32 µM
IC50 [1]: 40 µM
IC50 [2]: 16 µM

Cc1ccccc1OCC(=O)N1CCCN(c2cccnn2)CC1
IC50: > 50 µM (inactive)
IC50 [1]: > 50 µM
IC50 [2]: > 50 µM

Cc1nn(-c2ccccc2)nc1CNC(=O)CN(Cc1ccccn1)Cc1ccccn1
IC50: 5 µM
IC50 [1]: 63 µM
IC50 [2]: 5 µM

O=C(CN1CCC2(O)CCCCC2C1c1ccc2c(c1)OCO2)Nc1ccc(Cl)cc1Cl (centres undefined)
IC50: 3.2 µM
IC50 [1]: > 50 µM
IC50 [2]: 1.3 µM

COc1ccc(CNc2cc(C3CC3)nc(-c3nccn3C)n2)cc1
IC50: 0.79 µM
IC50 [1]: 13 µM
IC50 [2]: 0.79 µM

COc1cc(F)c2ncc(F)c(CCN3CC[C@H](NCc4cc5c(cn4)OCS5)[C@@H](O)C3)c2c1
IC50: 16 µM
IC50 [1]: 16 µM
IC50 [2]: 13 µM

CC1(Oc2cncc(Cl)c2)CCN(Cc2cc3ccccc3[nH]2)C1 (centres undefined)
IC50: 20 µM
IC50 [1]: 32 µM
IC50 [2]: 32 µM

CC(C(=O)Nc1ccccc1F)N(C)CC(=O)Nc1cccc2ccccc12 (centres undefined)
IC50: > 50 µM (inactive)
IC50 [1]: > 50 µM
IC50 [2]: > 50 µM

O=C(NCCc1ccccn1)C(c1cn[nH]c1)N1CCN(c2ccc(Cl)c(Cl)c2)CC1 (centres undefined)
IC50: > 50 µM (inactive)
IC50 [1]: > 50 µM
IC50 [2]: 20 µM

O=C(CSc1ccc(F)cc1)N[C@@H](Cc1cnc[nH]1)C(=O)NCCc1ccccc1
IC50: > 50 µM (inactive)
IC50 [1]: > 50 µM
IC50 [2]: > 50 µM

N#Cc1cccc(Nc2nccc(N3CCC(NS(=O)(=O)c4cccc(C#N)c4)CC3)n2)c1
IC50: 10 µM
IC50 [1]: > 50 µM
IC50 [2]: 6.3 µM

Cc1[nH]n2c(=O)c3c(nc2c1-c1ccc(F)cc1)CCCC3
IC50: > 50 µM (inactive)
IC50 [1]: > 50 µM
IC50 [2]: > 50 µM

N#Cc1ccc(S(=O)(=O)N2CCN(Cc3cccc(-c4ccncc4)c3)CC2)cc1
IC50: > 50 µM (inactive)
IC50 [1]: > 50 µM
IC50 [2]: 1.3 µM

Nc1ncnc2c1ncn2[C@@H]1O[C@H](CO)C[C@H]1O
IC50: > 50 µM (inactive)
IC50 [1]: > 50 µM
IC50 [2]: > 50 µM

CCc1cc(C(=O)Nc2nccn2-c2ccccc2)cs1
IC50: 13 µM
IC50 [1]: 32 µM
IC50 [2]: 5 µM

COc1cnc2ccc(=O)n(CCN3CCC(NC(=O)c4ccc(Cl)cc4)CC3)c2c1
IC50: > 50 µM (inactive)
IC50 [1]: > 50 µM
IC50 [2]: 4 µM

O=C(NCCc1cccnc1)c1ccc(-c2ccccc2F)o1
IC50: > 50 µM (inactive)
IC50 [1]: > 50 µM
IC50 [2]: > 50 µM

CCOc1ccc(NC(=O)c2ccc(NC(=O)NC3CCCCC3)cc2)cc1
IC50: 7.9 µM
IC50 [1]: 4 µM
IC50 [2]: 6.3 µM

CCCc1nc2nc(N)nc(N)c2cc1CC
IC50: 40 µM
IC50 [1]: > 50 µM
IC50 [2]: 40 µM

Clc1ccc(Sc2cnccc2N2CCOCC2)cc1
IC50: > 50 µM (inactive)
IC50 [1]: > 50 µM
IC50 [2]: 10 µM
